Laboratory results from patent US20240210412A1, “SULFONYL-TRIAZOLE COMPOUNDS USEFUL AS LIGANDS AND INHIBITORS OF PROSTAGLANDIN REDUCTASE 2” (University of Virginia Patent Foundation, priority 2021, published 2024).

What was measured:
Test in all cases: SILAC LC-MS ABPP
Format in all cases: cell-based
Conditions in all cases: 25 μM 2 h, live DM93 cells
[1] = target: Q9H009 (Homo sapiens, UniProt Q9H009)
Method in brief: (§1)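 Readout is SILAC heavy/light LC-MS/MS quantification of HHS-475-labelled tyrosine peptides, reflecting blockade of probe labelling by ligand. DM93 cells were pretreated with 25 μM SuTEx ligand (heavy) or DMSO (light) for 2 h at 37 °C, then probed with 100 μM HHS-475 for 2 h.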

[2] = target: T1, Q15293 (Homo sapiens, UniProt Q15293)
T1 construct: performing SuTEx compound screening directly in cells; endogenous in cells; host or cells: DM93 cells (SILAC), soluble fraction
T1 sequence (Q15293 30-331): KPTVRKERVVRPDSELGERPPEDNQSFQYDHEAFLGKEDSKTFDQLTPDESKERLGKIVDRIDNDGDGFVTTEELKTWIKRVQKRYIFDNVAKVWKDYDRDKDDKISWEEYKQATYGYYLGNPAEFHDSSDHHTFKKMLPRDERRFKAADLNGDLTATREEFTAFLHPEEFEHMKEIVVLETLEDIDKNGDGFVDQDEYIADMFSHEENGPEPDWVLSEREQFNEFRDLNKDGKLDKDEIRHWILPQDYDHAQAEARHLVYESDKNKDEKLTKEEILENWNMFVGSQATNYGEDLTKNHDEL
Method in brief: as §1

[3] = target: T2, P25789 (Homo sapiens, UniProt P25789)
T2 construct: endogenous in cells; host or cells: DM93 (SILAC)
Method in brief: as §1

[4] = target: T3, P09874 (Homo sapiens, UniProt P09874)
T3 construct: endogenous in cells; host or cells: DM93 cells (SILAC)
T3 sequence (P09874 whole entry): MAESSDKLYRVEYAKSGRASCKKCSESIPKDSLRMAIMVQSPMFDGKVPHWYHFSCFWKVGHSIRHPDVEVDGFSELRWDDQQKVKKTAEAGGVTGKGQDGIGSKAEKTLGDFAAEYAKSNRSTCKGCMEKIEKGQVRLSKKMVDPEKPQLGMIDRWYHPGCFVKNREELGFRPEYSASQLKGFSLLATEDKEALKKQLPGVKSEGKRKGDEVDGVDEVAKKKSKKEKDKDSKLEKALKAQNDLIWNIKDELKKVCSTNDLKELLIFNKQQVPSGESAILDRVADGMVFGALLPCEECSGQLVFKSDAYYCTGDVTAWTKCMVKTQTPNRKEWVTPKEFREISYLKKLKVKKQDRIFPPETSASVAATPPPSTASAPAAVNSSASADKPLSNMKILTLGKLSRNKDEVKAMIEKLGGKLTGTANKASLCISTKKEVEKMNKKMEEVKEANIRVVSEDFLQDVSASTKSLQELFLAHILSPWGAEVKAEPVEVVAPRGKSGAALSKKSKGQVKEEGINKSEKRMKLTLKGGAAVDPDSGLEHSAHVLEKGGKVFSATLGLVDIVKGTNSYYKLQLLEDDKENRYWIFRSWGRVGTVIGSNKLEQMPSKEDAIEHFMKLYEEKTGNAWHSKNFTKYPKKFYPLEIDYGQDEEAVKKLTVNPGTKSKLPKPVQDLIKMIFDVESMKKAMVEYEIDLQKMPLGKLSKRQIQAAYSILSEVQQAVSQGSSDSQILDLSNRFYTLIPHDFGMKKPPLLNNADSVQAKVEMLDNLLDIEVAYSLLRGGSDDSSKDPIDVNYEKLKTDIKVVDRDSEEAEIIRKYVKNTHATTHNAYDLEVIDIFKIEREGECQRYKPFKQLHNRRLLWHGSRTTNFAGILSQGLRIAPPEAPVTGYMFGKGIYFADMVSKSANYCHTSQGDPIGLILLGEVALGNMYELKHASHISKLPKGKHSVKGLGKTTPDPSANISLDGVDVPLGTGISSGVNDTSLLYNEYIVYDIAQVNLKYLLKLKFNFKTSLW
Method in brief: as §1

[5] = target: T4, Q969T9 (Homo sapiens, UniProt Q969T9)
T4 construct: endogenous in cells; host or cells: DM93 cells (SILAC), live-cell treatment
T4 sequence (Q969T9 whole entry): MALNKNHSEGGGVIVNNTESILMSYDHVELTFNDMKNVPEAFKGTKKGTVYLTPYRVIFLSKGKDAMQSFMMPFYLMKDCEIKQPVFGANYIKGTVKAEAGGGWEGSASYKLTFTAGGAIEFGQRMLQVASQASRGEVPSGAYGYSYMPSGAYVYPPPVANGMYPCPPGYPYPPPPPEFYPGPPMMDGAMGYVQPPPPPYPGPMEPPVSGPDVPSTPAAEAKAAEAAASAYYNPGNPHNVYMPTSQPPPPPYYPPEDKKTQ
Method in brief: as §1

[6] = target: T5, Q9BWD1 (Homo sapiens, UniProt Q9BWD1)
T5 construct: endogenous in cells; host or cells: DM93 cells (SILAC), treated live; soluble proteome analysed
T5 sequence (Q9BWD1 whole entry): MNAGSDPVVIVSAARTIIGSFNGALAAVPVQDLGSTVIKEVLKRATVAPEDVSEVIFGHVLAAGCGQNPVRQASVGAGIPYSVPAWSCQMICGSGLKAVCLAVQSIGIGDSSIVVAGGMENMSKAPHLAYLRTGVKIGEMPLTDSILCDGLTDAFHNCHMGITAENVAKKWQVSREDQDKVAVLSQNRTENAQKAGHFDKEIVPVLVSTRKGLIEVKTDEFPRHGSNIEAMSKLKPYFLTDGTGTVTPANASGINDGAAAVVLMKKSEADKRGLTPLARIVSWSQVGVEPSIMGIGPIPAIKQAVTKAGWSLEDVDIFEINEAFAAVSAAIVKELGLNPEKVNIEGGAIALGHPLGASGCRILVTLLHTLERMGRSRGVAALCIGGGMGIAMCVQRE
Method in brief: as §1

[7] = target: T6, Q96C86 (Homo sapiens, UniProt Q96C86)
T6 construct: endogenous in cells; host or cells: DM93 cells (SILAC), treated live; soluble proteome analysed
T6 sequence (Q96C86 whole entry): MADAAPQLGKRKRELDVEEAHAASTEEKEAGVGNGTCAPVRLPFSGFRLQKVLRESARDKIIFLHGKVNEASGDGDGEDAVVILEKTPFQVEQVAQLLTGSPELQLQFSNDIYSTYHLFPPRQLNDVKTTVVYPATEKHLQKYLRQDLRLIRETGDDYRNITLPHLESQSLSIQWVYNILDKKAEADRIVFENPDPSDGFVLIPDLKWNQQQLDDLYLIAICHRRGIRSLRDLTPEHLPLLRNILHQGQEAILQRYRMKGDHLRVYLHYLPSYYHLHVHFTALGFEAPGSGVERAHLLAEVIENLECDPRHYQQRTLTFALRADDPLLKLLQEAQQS
Method in brief: as §1

[8] = target: T7, Q14566 (Homo sapiens, UniProt Q14566)
T7 construct: performing SuTEx compound screening directly in cells; endogenous in cells; host or cells: DM93 cells (SILAC), soluble fraction
Method in brief: as §1

[9] = target: T8, Q9UPP1 (Homo sapiens, UniProt Q9UPP1)
T8 construct: endogenous in cells; host or cells: DM93 cells (SILAC)
T8 sequence (Q9UPP1 whole entry): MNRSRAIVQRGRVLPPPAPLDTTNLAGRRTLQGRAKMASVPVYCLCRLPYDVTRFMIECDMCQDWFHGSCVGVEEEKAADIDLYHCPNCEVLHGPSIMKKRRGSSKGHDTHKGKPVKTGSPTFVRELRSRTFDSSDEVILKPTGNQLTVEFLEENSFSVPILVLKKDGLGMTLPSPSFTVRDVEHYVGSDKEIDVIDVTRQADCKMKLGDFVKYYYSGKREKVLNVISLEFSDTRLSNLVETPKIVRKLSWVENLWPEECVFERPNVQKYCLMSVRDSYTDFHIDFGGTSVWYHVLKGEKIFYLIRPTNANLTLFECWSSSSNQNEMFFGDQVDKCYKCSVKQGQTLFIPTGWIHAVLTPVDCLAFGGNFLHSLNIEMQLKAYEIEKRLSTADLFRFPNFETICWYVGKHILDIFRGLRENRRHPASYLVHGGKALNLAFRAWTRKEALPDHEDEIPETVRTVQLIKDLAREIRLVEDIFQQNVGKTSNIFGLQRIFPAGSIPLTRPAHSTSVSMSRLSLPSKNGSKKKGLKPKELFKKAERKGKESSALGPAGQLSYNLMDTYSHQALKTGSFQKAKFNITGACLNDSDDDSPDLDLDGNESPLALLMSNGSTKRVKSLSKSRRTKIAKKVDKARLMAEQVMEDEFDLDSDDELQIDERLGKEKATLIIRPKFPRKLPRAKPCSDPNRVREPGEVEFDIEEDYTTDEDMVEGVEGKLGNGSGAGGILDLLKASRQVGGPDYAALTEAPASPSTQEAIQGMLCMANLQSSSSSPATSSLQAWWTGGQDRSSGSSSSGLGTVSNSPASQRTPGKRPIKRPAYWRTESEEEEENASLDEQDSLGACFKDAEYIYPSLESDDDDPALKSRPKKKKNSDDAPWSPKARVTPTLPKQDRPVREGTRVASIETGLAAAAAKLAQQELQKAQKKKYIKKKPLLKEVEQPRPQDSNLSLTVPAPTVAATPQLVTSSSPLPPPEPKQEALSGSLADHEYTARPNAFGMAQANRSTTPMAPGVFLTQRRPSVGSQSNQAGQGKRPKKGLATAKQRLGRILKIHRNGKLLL
Method in brief: as §1

[10] = target: T9, Q92804 (Homo sapiens, UniProt Q92804)
T9 construct: endogenous in cells; host or cells: DM93 cells (SILAC), live-cell treatment
Method in brief: as §1

[11] = target: T10, Q9H3P7 (Homo sapiens, UniProt Q9H3P7)
T10 construct: endogenous in cells; host or cells: DM93 cells (SILAC), treated live; soluble proteome analysed
T10 sequence (Q9H3P7 whole entry): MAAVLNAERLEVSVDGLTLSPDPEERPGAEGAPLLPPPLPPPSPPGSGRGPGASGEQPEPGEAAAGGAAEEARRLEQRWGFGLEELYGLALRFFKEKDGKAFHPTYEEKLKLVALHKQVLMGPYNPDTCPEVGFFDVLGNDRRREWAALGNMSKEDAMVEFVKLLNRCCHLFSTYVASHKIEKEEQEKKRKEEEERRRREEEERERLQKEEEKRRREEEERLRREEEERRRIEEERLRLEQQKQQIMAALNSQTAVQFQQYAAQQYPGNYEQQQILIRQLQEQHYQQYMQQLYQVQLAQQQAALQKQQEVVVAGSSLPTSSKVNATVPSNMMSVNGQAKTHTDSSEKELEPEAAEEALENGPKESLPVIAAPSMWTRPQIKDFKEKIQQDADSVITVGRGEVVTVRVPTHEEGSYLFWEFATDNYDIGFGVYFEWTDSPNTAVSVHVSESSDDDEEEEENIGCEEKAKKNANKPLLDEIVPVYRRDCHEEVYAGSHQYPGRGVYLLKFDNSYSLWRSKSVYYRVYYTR
Method in brief: as §1

[12] = target: T11, O14578 (Homo sapiens, UniProt O14578)
T11 construct: endogenous in cells; host or cells: DM93
Method in brief: as §1

[13] = target: T12, P20618 (Homo sapiens, UniProt P20618)
T12 construct: endogenous in cells; host or cells: DM93 (SILAC)
Method in brief: as §1

[14] = target: T13, Q16576 (Homo sapiens, UniProt Q16576)
T13 construct: performing SuTEx compound screening directly in cells; endogenous in cells; host or cells: DM93 cells (SILAC), soluble fraction
Method in brief: as §1

[15] = target: T14, Q12874 (Homo sapiens, UniProt Q12874)
T14 construct: performing SuTEx compound screening directly in cells; endogenous in cells; host or cells: DM93 cells (SILAC)
Method in brief: as §1

[16] = target: T15, Q96BR5 (Homo sapiens, UniProt Q96BR5)
T15 construct: endogenous in cells; host or cells: DM93 cells (SILAC), treated live; soluble proteome analysed
T15 sequence (Q96BR5 whole entry): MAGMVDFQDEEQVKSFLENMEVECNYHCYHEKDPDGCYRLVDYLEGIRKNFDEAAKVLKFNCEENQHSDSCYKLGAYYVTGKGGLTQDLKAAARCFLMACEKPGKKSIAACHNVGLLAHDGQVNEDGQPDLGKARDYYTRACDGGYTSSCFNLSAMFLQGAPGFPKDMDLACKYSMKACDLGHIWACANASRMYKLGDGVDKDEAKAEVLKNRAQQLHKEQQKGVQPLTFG
Method in brief: as §1

[17] = target: T16, O95453 (Homo sapiens, UniProt O95453)
T16 construct: endogenous in cells; host or cells: DM93 cells (SILAC)
T16 sequence (O95453 whole entry): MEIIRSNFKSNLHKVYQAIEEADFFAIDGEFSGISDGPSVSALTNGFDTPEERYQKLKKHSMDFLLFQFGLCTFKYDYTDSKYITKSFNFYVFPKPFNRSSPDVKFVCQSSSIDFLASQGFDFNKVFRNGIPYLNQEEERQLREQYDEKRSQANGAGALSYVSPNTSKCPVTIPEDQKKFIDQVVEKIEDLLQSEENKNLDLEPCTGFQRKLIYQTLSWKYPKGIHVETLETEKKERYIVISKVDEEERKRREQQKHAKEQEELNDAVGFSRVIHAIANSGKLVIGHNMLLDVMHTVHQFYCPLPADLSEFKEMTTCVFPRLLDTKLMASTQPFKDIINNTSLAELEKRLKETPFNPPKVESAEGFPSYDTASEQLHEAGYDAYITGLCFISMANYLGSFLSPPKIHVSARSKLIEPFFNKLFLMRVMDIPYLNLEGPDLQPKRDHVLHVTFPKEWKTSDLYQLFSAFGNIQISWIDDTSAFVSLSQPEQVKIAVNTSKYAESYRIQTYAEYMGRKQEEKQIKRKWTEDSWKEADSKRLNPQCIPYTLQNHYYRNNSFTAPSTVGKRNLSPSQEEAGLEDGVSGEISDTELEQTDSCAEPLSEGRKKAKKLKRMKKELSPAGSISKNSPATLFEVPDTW
Method in brief: as §1

[18] = target: T17, Q9UMX5 (Homo sapiens, UniProt Q9UMX5)
T17 construct: endogenous in cells; host or cells: DM93 cells (SILAC)
T17 sequence (Q9UMX5 32-172): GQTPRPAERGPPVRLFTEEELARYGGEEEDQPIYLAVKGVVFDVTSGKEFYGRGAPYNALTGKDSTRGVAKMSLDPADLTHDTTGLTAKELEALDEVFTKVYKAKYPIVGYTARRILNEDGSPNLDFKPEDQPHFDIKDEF
Method in brief: as §1

Compound: O=C(NC1CC1)c1ccc(S(=O)(=O)n2cncn2)cc1 [HHS-0101, 4-((1H-1,2,4-triazol-1-yl)sulfonyl)-N-cyclopropylbenzamide]
- liganded tyrosine site 112 [1]: HHS0101.Y|HHS0201.Y|HHS0301.Y|HHS0401.Y|HHS0701.Y (tyrosine sites that showed >80% reductions (SR >5) in probe labeling in cells treated with compounds (liganded sites))
- liganded tyrosine site 320 [2]: HHS0101.Y (tyrosine sites that showed >80% reductions (SR >5) in probe labeling in cells treated with compounds (liganded sites))
- liganded tyrosine site 19 [3]: HHS0101.Y (tyrosine sites that showed >80% reductions (SR >5) in probe labeling in cells treated with compounds (liganded sites))
- liganded tyrosine site 66 [3]: HHS0101.Y|HHS0201.Y|HHS0301.Y (tyrosine sites that showed >80% reductions (SR >5) in probe labeling in cells treated with compounds (liganded sites))
- liganded tyrosine site 645 [4]: HHS0101.Y (tyrosine sites that showed >80% reductions (SR >5) in probe labeling in cells treated with compounds (liganded sites))
- liganded tyrosine site 232 [5]: HHS0101.Y|HHS0701.Y (tyrosine sites that showed >80% reductions (SR >5) in probe labeling in cells treated with compounds (liganded sites))
- liganded tyrosine site 237 [6]: HHS0101.Y|HHS0201.Y|HHS0301.Y|HHS0401.Y (tyrosine sites that showed >80% reductions (SR >5) in probe labeling in cells treated with compounds (liganded sites))
- liganded tyrosine site 116 [7]: HHS0101.Y|HHS0401.Y (tyrosine sites that showed >80% reductions (SR >5) in probe labeling in cells treated with compounds (liganded sites))

Compound: O=C(NCC1CC1)c1ccc(S(=O)(=O)n2cncn2)cc1 [HHS-0201, 4-((1H-1,2,4-triazol-1-yl)sulfonyl)-N-(cyclopropylmethyl)benzamide]
- liganded tyrosine site 783 [8]: HHS0201.Y (tyrosine sites that showed >80% reductions (SR >5) in probe labeling in cells treated with compounds (liganded sites))
- liganded tyrosine site 383 [9]: HHS0201.Y (tyrosine sites that showed >80% reductions (SR >5) in probe labeling in cells treated with compounds (liganded sites))
- liganded tyrosine site 170 [10]: HHS0201.Y|HHS0301.Y (tyrosine sites that showed >80% reductions (SR >5) in probe labeling in cells treated with compounds (liganded sites))
- liganded tyrosine site 293 [11]: HHS0201.Y|HHS0301.Y (tyrosine sites that showed >80% reductions (SR >5) in probe labeling in cells treated with compounds (liganded sites))

Compound: O=C(NC1CCCCC1)c1ccc(S(=O)(=O)n2cncn2)cc1 [HHS-0301, 4-((1H-1,2,4-triazol-1-yl)sulfonyl)-N-cyclohexylbenzamide]
- liganded tyrosine site 818 [12]: HHS0301.Y (tyrosine sites that showed >80% reductions (SR >5) in probe labeling in cells treated with compounds (liganded sites))
- liganded tyrosine site 135 [13]: HHS0301.Y (tyrosine sites that showed >80% reductions (SR >5) in probe labeling in cells treated with compounds (liganded sites))
- liganded tyrosine site 153 [14]: HHS0301.Y|HHS0701.Y (tyrosine sites that showed >80% reductions (SR >5) in probe labeling in cells treated with compounds (liganded sites))
- liganded tyrosine site 139 [15]: HHS0301.Y (tyrosine sites that showed >80% reductions (SR >5) in probe labeling in cells treated with compounds (liganded sites))

Compound: O=C(NCc1ccccc1)c1ccc(S(=O)(=O)n2cncn2)cc1 [HHS-0401, 4-((1H-1,2,4-triazol-1-yl)sulfonyl)-N-benzylbenzamide]
- liganded tyrosine site 72 [16]: HHS0401.Y (tyrosine sites that showed >80% reductions (SR >5) in probe labeling in cells treated with compounds (liganded sites))
- liganded tyrosine site 161 [17]: HHS0401.Y (tyrosine sites that showed >80% reductions (SR >5) in probe labeling in cells treated with compounds (liganded sites))

Compound: O=C(c1ccc(S(=O)(=O)n2cncn2)cc1)N1CCC(c2ccccc2)CC1 [HHS-0701, (4-((1H-1,2,4-triazol-1-yl)sulfonyl)phenyl)(4-phenylpiperidin-1-yl)methanone]
- liganded tyrosine site 82 [18]: HHS0701.Y (tyrosine sites that showed >80% reductions (SR >5) in probe labeling in cells treated with compounds (liganded sites))
